Source: patent US7098340B2, “Benzyl sulfonamide derivatives” (Warner Lambert Company LLC, priority 2003, dated 2006)

Molecular target: T1, androgen receptor (Homo sapiens, UniProt P10275)
T1 sequence (P10275 1-920 Q868H): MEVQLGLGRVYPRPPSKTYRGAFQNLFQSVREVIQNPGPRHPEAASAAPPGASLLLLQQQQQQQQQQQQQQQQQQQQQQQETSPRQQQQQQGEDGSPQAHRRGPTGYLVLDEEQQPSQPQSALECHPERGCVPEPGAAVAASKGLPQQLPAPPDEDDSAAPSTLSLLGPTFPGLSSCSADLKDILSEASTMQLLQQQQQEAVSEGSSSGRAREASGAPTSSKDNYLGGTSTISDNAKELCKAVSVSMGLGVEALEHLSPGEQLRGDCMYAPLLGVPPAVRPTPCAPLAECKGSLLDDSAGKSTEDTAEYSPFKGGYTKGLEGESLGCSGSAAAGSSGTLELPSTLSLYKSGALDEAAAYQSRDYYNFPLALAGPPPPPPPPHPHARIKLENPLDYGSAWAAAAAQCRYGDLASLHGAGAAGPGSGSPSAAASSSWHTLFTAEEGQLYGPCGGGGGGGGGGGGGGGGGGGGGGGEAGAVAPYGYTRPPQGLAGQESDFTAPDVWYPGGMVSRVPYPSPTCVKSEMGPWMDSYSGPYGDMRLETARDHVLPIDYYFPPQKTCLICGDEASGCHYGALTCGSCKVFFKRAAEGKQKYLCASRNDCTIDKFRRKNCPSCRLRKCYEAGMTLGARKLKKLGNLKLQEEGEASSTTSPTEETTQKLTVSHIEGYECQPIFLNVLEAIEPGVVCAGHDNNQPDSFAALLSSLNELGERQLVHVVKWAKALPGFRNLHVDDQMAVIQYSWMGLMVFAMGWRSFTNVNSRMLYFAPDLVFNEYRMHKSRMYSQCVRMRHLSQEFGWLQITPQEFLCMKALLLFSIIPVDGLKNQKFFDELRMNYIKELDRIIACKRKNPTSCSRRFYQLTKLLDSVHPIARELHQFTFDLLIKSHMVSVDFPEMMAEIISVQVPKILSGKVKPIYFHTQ
Test: AR Antagonist Cell Assay (MMTV-luciferase reporter, DHT-stimulated)
Format: cell-based
Conditions: MDA-MB453-MMTV clone 54-19 cells; antagonism of 100 pM DHT, 17 hr, luciferase readout
Procedure, shortened: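 MDA-MB453 cells stably carrying MMTV-ARE-firefly luciferase, in 1% charcoal-treated serum, preincubated 30 min with compound (10 uM or 1 uM) then stimulated with 100 pM DHT for 17 h at 37° C. Luminescence read; result as % inhibition of DHT fold induction.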

Going from `Cc1cccc(CNS(=O)(=O)c2ccc(Cc3ccc4oc(=O)cc(C(F)(F)F)c4c3)cc2)c1` [Example 169, N-(3-Methylbenzyl)-4-(2-oxo-4-trifluoromethyl-2H-chromen-6-ylmethyl)benzenesulfonamide] to `O=c1cc(C(F)(F)F)c2cc(Cc3ccc(S(=O)(=O)NCc4cccnc4)cc3)ccc2o1` [Example 163, 4-(2-Oxo-4-trifluoromethyl-2H-chromen-6-ylmethyl)-N-pyridin-3-ylmethylbenzenesulfonamide], the IC50 falls from 5.81 µM to 3.08 µM (1.9-fold).

Going from `O=c1cc(C(F)(F)F)c2cc(Cc3ccc(S(=O)(=O)NCc4ccc(F)cc4)cc3)ccc2o1` [Example 173, N-(4-Fluorobenzyl)-4-(2-oxo-4-trifluoromethyl-2H-chromen-6-ylmethyl)benzenesulfonamide] to `O=c1cc(C(F)(F)F)c2cc(Cc3ccc(S(=O)(=O)Nc4ccc(F)cc4)cc3)ccc2o1` [Example 117, N-(4-Fluorophenyl)-4-(2-oxo-4-trifluoromethyl-2H-chromen-6-ylmethyl)benzenesulfonamide], the IC50 falls from 7.68 µM to 3.46 µM (2.2-fold). The second is the more potent here.

`O=c1cc(C(F)(F)F)c2cc(Cc3ccc(S(=O)(=O)Nc4cc5ccccc5cn4)cc3)ccc2[nH]1` [Example 27, N-Isoquinolin-3-yl-4-(2-oxo-4-trifluoromethyl-1,2-dihydroquinolin-6-ylmethyl)-benzenesulfonamide] and `O=c1cc(C(F)(F)F)c2cc(Cc3ccc(S(=O)(=O)Nc4cc5ccccc5cn4)cc3)ccc2o1` [Example 136, N-Isoquinolin-3-yl-4-(2-oxo-4-trifluoromethyl-2H-chromen-6-ylmethyl)benzenesulfonamide] cannot be ordered by IC50: over 10 µM for the first, over 10 µM for the second.

First: O=c1cc(C(F)(F)F)c2cc(Cc3ccc(S(=O)(=O)Nc4cccc(OCc5ccccc5)c4)cc3)ccc2[nH]1 [Example 44, N-(3-Benzyloxyphenyl)-4-(2-oxo-4-trifluoromethyl-1,2-dihydroquinolin-6-ylmethyl)-benzenesulfonamide]
Second: O=c1cc(C(F)(F)F)c2cc(Cc3ccc(S(=O)(=O)Nc4cc(-c5ccccc5)n[nH]4)cc3)ccc2[nH]1 [Example 37, 4-(2-Oxo-4-trifluoromethyl-1,2-dihydroquinolin-6-ylmethyl)-N-(5-phenyl-2H-pyrazol-3-yl)-benzenesulfonamide]
The IC50 of the first is lower: 2.8 µM for the first, over 10 µM for the second. The first is the more potent here.

`O=c1cc(C(F)(F)F)c2cc(Cc3ccc(S(=O)(=O)NCc4ccc5c(c4)CCO5)cc3)ccc2o1` [Example 189, N-(2,3-Dihydrobenzofuran-5-ylmethyl)-4-(2-oxo-4-trifluoromethyl-2H-chromen-6-ylmethyl)benzenesulfonamide] and `O=c1cc(C(F)(F)F)c2cc(Cc3ccc(S(=O)(=O)Nc4ccc5c(c4)OCO5)cc3)ccc2o1` [Example 131, N-Benzo[1,3]dioxol-5-yl-4-(2-oxo-4-trifluoromethyl-2H-chromen-6-ylmethyl)-benzenesulfonamide] are within 1.5-fold of each other in IC50: 2.51 µM for the first, 2.4 µM for the second.

Going from `O=c1cc(C(F)(F)F)c2cc(Cc3ccc(S(=O)(=O)N(Cc4ccccc4)Cc4ccccc4)cc3)ccc2[nH]1` [Example 11, N,N-Dibenzyl-4-(2-oxo-4-trifluoromethyl-1,2-dihydroquinolin-6-ylmethyl)benzenesulfonamide] to `O=c1cc(C(F)(F)F)c2cc(Cc3ccc(S(=O)(=O)NCC(c4ccccc4)c4ccccc4)cc3)ccc2[nH]1` [Example 92, N-(2,2-Diphenylethyl)-4-(2-oxo-4-trifluoromethyl-1,2-dihydroquinolin-6-ylmethyl)-benzenesulfonamide], the IC50 falls from over 10 µM to 2.71 µM. The second is the more potent here.

Compared with `O=c1cc(C(F)(F)F)c2cc(Cc3ccc(S(=O)(=O)NCc4c(F)ccc(F)c4Cl)cc3)ccc2[nH]1` [Example 87, N-(2-Chloro-3,6-difluorobenzyl)-4-(2-oxo-4-trifluoromethyl-1,2-dihydroquinolin-6-ylmethyl)-benzenesulfonamide], `Cc1ccc(F)c(CNS(=O)(=O)c2ccc(Cc3ccc4oc(=O)cc(C(F)(F)F)c4c3)cc2)c1Cl` [Example 200, N-(2-Chloro-6-fluoro-3-methylbenzyl)-4-(2-oxo-4-trifluoromethyl-2H-chromen-6-ylmethyl)benzenesulfonamide] is lower in IC50: over 10 µM for the first, 6.91 µM for the second.

First: CCCN(CC1CC1)S(=O)(=O)c1ccc(Cc2ccc3[nH]c(=O)cc(C(F)(F)F)c3c2)cc1 [Example 9A, N-Cyclopropylmethyl-4-(2-oxo-trifluoromethyl-1,2-dihydroquinolin-6-ylmethyl)-N-propylbenzenesulfonamide]
Second: COCCN(CCOC)S(=O)(=O)c1ccc(Cc2ccc3[nH]c(=O)cc(C(F)(F)F)c3c2)cc1 [Example 12, N,N-Bis(2-methoxyethyl)-4-(2-oxo-4-trifluoromethyl-1,2-dihydroquinolin-6-ylmethyl)benzenesulfonamide]
The IC50 of the first is lower: 6.29 µM for the first, over 10 µM for the second.

`O=c1cc(C(F)(F)F)c2cc(Cc3ccc(S(=O)(=O)N[C@H]4[C@@H]5CC[C@@H](C5)[C@H]4CO)cc3)ccc2[nH]1` (stereo in doubt) [Example 88, N-(3-Hydroxymethyl-bicyclo[2.2.1]hept-2-yl)-4-(2-oxo-4-trifluoromethyl-1,2-dihydroquinolin-6-ylmethyl)-benzenesulfonamide] and `CC(C)(C)SCCNS(=O)(=O)c1ccc(Cc2ccc3[nH]c(=O)cc(C(F)(F)F)c3c2)cc1` [Example 82, N-(2-tert-Butylsulfanylethyl)-4-(2-oxo-4-trifluoromethyl-1,2-dihydroquinolin-6-ylmethyl)-benzenesulfonamide] cannot be ordered by IC50: over 10 µM for the first, over 10 µM for the second.

Going from `CCN(Cc1ccncc1)S(=O)(=O)c1ccc(Cc2ccc3[nH]c(=O)cc(C(F)(F)F)c3c2)cc1` [Example 5, N-Ethyl-4-(2-oxo-4-trifluoromethyl-1,2-dihydroquinolin-6-ylmethyl)-N-pyridin-4-ylmethylbenzenesulfonamide] to `CC(=O)c1cccc(NS(=O)(=O)c2ccc(Cc3ccc4[nH]c(=O)cc(C(F)(F)F)c4c3)cc2)c1` [Example 21, N-(3-Acetylphenyl)-4-(2-oxo-4-trifluoromethyl-1,2-dihydroquinolin-6-ylmethyl)benzenesulfonamide], the IC50 falls from over 10 µM to 9.09 µM. The second is the more potent here.

Compared with `O=c1cc(C(F)(F)F)c2cc(Cc3ccc(S(=O)(=O)Nc4ccc(Cl)cc4)cc3)ccc2[nH]1` [Example 26, N-(4-Chlorophenyl)-4-(2-oxo-4-trifluoromethyl-1,2-dihydroquinolin-6-ylmethyl)-benzenesulfonamide], `O=c1cc(C(F)(F)F)c2cc(Cc3ccc(S(=O)(=O)Nc4ccccc4Cl)cc3)ccc2[nH]1` [Example 18, N-(2-Chlorophenyl)-4-(2-oxo-4-triftuoromethyl-1,2-dihydroquinolin-6-ylmethyl)-benzenesulfonamide] is 1.6-fold higher in IC50: 1.97 µM for the first, 3.16 µM for the second. The first is the more potent here.

Going from `CCc1ccc(NS(=O)(=O)c2ccc(Cc3ccc4oc(=O)cc(C(F)(F)F)c4c3)cc2)cc1` [Example 120, N-(4-Ethylphenyl)-4-(2-oxo-4-trifluoromethyl-2H-chromen-6-ylmethyl)-benzenesulfonamide] to `C#Cc1ccc(NS(=O)(=O)c2ccc(Cc3ccc4oc(=O)cc(C(F)(F)F)c4c3)cc2)cc1` [Example 118, N-(4-Ethynylphenyl)-4-(2-oxo-4-trifluoromethyl-2H-chromen-6-ylmethyl)-benzenesulfonamide], the IC50 rises from 1.32 µM to 5.47 µM (4.1-fold). The first is the more potent here.

First: COc1ccc(N(Cc2ccccc2)S(=O)(=O)c2ccc(Cc3ccc4oc(=O)cc(C(F)(F)F)c4c3)cc2)cc1 [Example 154, N-Benzyl-N-(4-methoxyphenyl)-4-(2-oxo-4-trifluoromethyl-2H-chromen-6-ylmethyl)benzenesulfonamide]
Second: O=c1cc(C(F)(F)F)c2cc(Cc3ccc(S(=O)(=O)Nc4ccc5ncccc5c4)cc3)ccc2o1 [Example 125, 4-(2-Oxo-4-trifluoromethyl-2H-chromen-6-ylmethyl)-N-quinolin-6-ylbenzenesulfonamide]
The IC50 of the first is lower: 6.06 µM for the first, over 10 µM for the second. The first is the more potent here.

`Cc1ccc(CNS(=O)(=O)c2ccc(Cc3ccc4[nH]c(=O)cc(C(F)(F)F)c4c3)cc2)o1` [Example 55, N-(5-Methylfuran-2-ylmethyl)-4-(2-oxo-4-trifluoromethyl-1,2-dihydroquinolin-6-ylmethyl)-benzenesulfonamide] and `O=c1cc(C(F)(F)F)c2cc(Cc3ccc(S(=O)(=O)Nc4cccc(C(F)(F)F)c4)cc3)ccc2[nH]1` [Example 39, 4-(2-Oxo-4-trifluoromethyl-1,2-dihydroquinolin-6-ylmethyl)-N-(3-trifluoromethylphenyl)-benzenesulfonamide] cannot be ordered by IC50: over 10 µM for the first, over 10 µM for the second.

For `Cc1ccc(CNS(=O)(=O)c2ccc(Cc3ccc4oc(=O)cc(C(F)(F)F)c4c3)cc2)c(F)c1F` [Example 197, N-(2,3-Difluoro-4-methylbenzyl)-4-(2-oxo-4-trifluoromethyl-2H-chromen-6-ylmethyl)benzenesulfonamide], the IC50 was 1.94 µM.
